Patent US20210369753A1, “NUTRIENT COMPOSITION ABLE TO INHIBIT QUORUM SENSING” (Brilliant Lab LLC, priority 2020, published 2021)
Like-named read-outs stand apart in the source and are kept apart here.

Key:
C. violaceum = conditions: cited from earlier work
S. aureus = conditions: cited from earlier work
P. aeruginosa = conditions: cited from earlier work
P. fluorescens = conditions: cited from earlier work
E. coli = E. coli O157:H7; cited from earlier work
Acinetobacter = conditions: cited from earlier work
Burkholderia = conditions: cited from earlier work
[1] = system: Chromobacterium violaceum (CV026); test: Halo assay (anti-quorum sensing); assay type: cell-based; conditions: CV026 agar plate; for Catechin at the highest concentrations
C. violaceum (CV026) = test: Violaceum assay (modified, butanol extraction); assay type: cell-based, Chromobacterium violaceum
Description: SUMMARY OF METHODS: (+)-Catechin was used as a positive control in the halo and violaceum assays. Varying concentrations of the composition of EXAMPLE XI or catechin mixed with C. violaceum were added to an agar plate and the generated halo was analyzed both by visual inspection and measurement. Method for Violaceum assays included adding either the composition of EXAMPLE XI or catechin to a solution of C. violaceum (strain CV026). After workup, the solutions were transferred to a 96 well plate and optical density was recorded at 590 nm. Optical density values were normalized to unextracted samples as a control.
Violaceum Assay: The violaceum assay was adapted from the method of Blosser, et al., Journal of Microbiological Methods 2000, 40, pp. 47-55. The model composition and Catechin were suspended/dissolved in ethanol. […] The OD600 of each culture was measured to be used to normalize violaceum levels to total biomass. […] The optical density was measured at 590 nm. The OD590 values were normalized to the biomass measurements determined for the unextracted samples.
VIOLACEUM ASSAY: The Violaceum assay was performed to further corroborate the results obtained in the Halo assay and to provide a quantitative measure of activity. This assay is based on the same principles as for the Halo assay, but since the assay is performed in solution, violaceum production can be more readily quantified. […]

[2] = system: Pseudomonas aeruginosa (ATCC 10145); test: Pyocyanin assay; assay type: cell-based; conditions: overnight culture, test materials in DMSO and in ethanol
[3] = system: P. aeruginosa (ATCC 10145); test: Biofilm assay (crystal violet); assay type: cell-based, Pseudomonas aeruginosa; conditions: 0.25-5 mg/mL, overnight, crystal violet OD 590 nm
Description: (§1) Biofilm assay: The biofilm assay was based on the method of Chong, et al. (2011). The model composition and Catechin were prepared at 100 mg/mL in ethanol. Appropriate volumes of each were added to eight replicate wells of a v-well 96-well plate to result in 0.25, 0.5, 1.25 and 5 mg/mL final concentrations for a 200 microliter final volume. The plate was air dried until all of the ethanol has evaporated. From fresh overnight cultures of P. aeruginosa (ATCC 10145) and S. aureus (ATCC 12600), solutions at OD600 of 0.1 were prepared in Nutrient broth/0.5% glucose. Two hundred microliters of the cultures were added to all wells and mixed by pipetting. The plates were covered with breathable films and incubated overnight without shaking at 37 degrees C. The cultures were removed, and the plates rinsed several times with water. Two hundred microliters of 0.1% crystal violet was added to each well and incubated at room temperature for 30 minutes. […] One hundred microliters of the solubilized crystal violet was transferred to a flat-bottom polystyrene plate and the optical density measured at 590 nm.
(§2) BIOFILM ASSAY: The composition of EXAMPLE XI was evaluated for anti-biofilm activity against Pseudomonas aeruginosa and Staphylococcus aureus. […]
(§3) The plates were incubated statically overnight. […] The crystal violet was quantified by measuring the optical density at 590 nm.

S. aureus (ATCC 12600) = test: Biofilm assay (crystal violet); assay type: cell-based, Staphylococcus aureus; conditions: 0.25-5 mg/mL, overnight, crystal violet OD 590 nm
Description: as §1, §2, §3

[4] = P. aeruginosa, strain not stated

## O=C(O)[C@H]1O[C@@H](Oc2cc3oc(-c4ccccc4)cc(=O)c3c(O)c2O)[C@H](O)[C@@H](O)[C@@H]1O [Baicalin]
C. violaceum; C. violaceum CV026
  inhibition of quorum sensing: inhibits quorum sensing
S. aureus
  inhibition of quorum sensing: inhibits quorum sensing

## O=C(/C=C/c1ccc(O)c(O)c1)O[C@@H]1C[C@](O)(C(=O)O)C[C@@H](O)[C@H]1O [Chlorogenic acid]
P. aeruginosa; [4]
  inhibition of quorum sensing: inhibits quorum sensing

## O=CC=Cc1ccccc1 [Cinnamaldehyde]
P. aeruginosa; P. aeruginosa PAO1
  inhibition of quorum sensing: inhibits quorum sensing
C. violaceum; C. violaceum CV026
  inhibition of quorum sensing: inhibits quorum sensing

## O=C(O[C@@H]1Cc2c(O)cc(O)cc2O[C@@H]1c1cc(O)c(O)c(O)c1)c1cc(O)c(O)c(O)c1 [EGCG]
P. aeruginosa; [4]
  inhibition of quorum sensing: inhibits quorum sensing

## COc1ccc([C@@H]2CC(=O)c3c(O)cc(O[C@@H]4O[C@H](CO[C@@H]5O[C@@H](C)[C@H](O)[C@@H](O)[C@H]5O)[C@@H](O)[C@H](O)[C@H]4O)cc3O2)cc1O [Hesperidin]
C. violaceum; C. violaceum, strain not stated
  inhibition of quorum sensing: inhibits quorum sensing
P. fluorescens
  inhibition of quorum sensing: inhibits quorum sensing

## O=C1C[C@@H](c2ccc(O)cc2)Oc2cc(O)cc(O)c21 [Naringenin]
P. aeruginosa; P. aeruginosa PAO1
  inhibition of quorum sensing: inhibits quorum sensing

## O=C(/C=C/c1ccc(O)c(O)c1)O[C@H](Cc1ccc(O)c(O)c1)C(=O)O [Rosmarinic acid]
P. aeruginosa; P. aeruginosa PAO1
  inhibition of quorum sensing: inhibits quorum sensing
E. coli
  inhibition of quorum sensing: inhibits quorum sensing
C. violaceum; C. violaceum 31532
  inhibition of quorum sensing: inhibits quorum sensing
C. violaceum; C. violaceum CV026
  inhibition of quorum sensing: inhibits quorum sensing

## C[S+]([O-])CCCCN=C=S (centres unmarked) [Sulforaphane]
P. aeruginosa; [4]
  inhibition of quorum sensing: inhibits quorum sensing

## O=C1OCC2OC(=O)c3cc(O)c(O)c(O)c3-c3c(O)c(O)c(O)c4c3C(=O)OC(C2OC(=O)c2cc(O)c(O)c(O)c2-c2c1cc(O)c(O)c2O)C1OC(=O)c2c-4c(O)c(O)c(O)c2C1O (centres unmarked) [Vescalagin]
P. aeruginosa; [4]
  inhibition of quorum sensing: inhibits quorum sensing
Acinetobacter
  inhibition of quorum sensing: inhibits quorum sensing
Burkholderia
  inhibition of quorum sensing: inhibits quorum sensing

## (+)-Catechin
[1]
  bacterial growth in halo assay: antibiotic effect inhibiting growth of the bacteria
C. violaceum (CV026); highest concentration tested, 5 mg/mL, OD590 normalized to biomass
  inhibition of violaceum production (quorum sensing): over 85%
C. violaceum (CV026); three lowest concentrations tested (1.25, 0.5 and 0.25 mg/mL)
  inhibition of violaceum production: 10-25%
[2]
  effect on pyocyanin production: slightly enhances production
[3]
  anti-biofilm activity: similar
S. aureus (ATCC 12600)
  anti-biofilm activity: similar
